Some test systems named below: LOX IMVI melanoma; EKVX NSCLC; SR leukemia; DU-145 prostate; HCT-116 colon; NCI-H23 lung; SNB-19 CNS; SK-MEL-5 melanoma; A498 renal; M14 melanoma.
What all share (assay): NCI-60 cell line screen, 48 h

Converted amounts (≈) assume the structure as drawn.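 Where inhibition never reached the appropriate level, the endpoint shown equals the highest concentration tested. Otherwise, values were interpolated linearly from a five-concentration, 48-hour dose response in 96-well plates. GI50 = concentration required for 50% inhibition of growth. TGI is the concentration that stops growth completely.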

Regarding `Cc1cccc2c(N)c3cccc(C(=O)NCC[N+](C)(C)Cc4c([N+](=O)[O-])ncn4C)c3nc12`, the TGI in the experiment on LOX IMVI melanoma was 35.6 µM; with EKVX NSCLC, > 100 µM; with SR leukemia, > 100 µM; in the experiment with DU-145 prostate, > 100 µM; in the experiment on HCT-116 colon, > 90.2 µM; with NCI-H23 lung, > 70.2 µM. Also, the TGI in the experiment on SNB-19 CNS is > 100 µM; in the experiment on SK-MEL-5 melanoma it was > 88.8 µM; in the experiment on A498 renal it was > 100 µM; with M14 melanoma, > 100 µM.

On to `CCOC(=O)CN=C1NNS(=O)(=O)c2ccccc21`, for which the TGI in the experiment on LOX IMVI melanoma, in the experiment with EKVX NSCLC, in the experiment on SR leukemia, with DU-145 prostate, in the experiment on HCT-116 colon and in the experiment on NCI-H23 lung was > 100 µM each time. Moreover, the TGI with SNB-19 CNS, with SK-MEL-5 melanoma, in the experiment with A498 renal and in the experiment with M14 melanoma was > 100 µM throughout.

Take `COc1ccc(O)c(/C(C)=N/NC(=S)N(C)C)c1`: the TGI in the experiment with LOX IMVI melanoma is 22.9 µM; with EKVX NSCLC, > 100 µM; in the experiment with SR leukemia it was > 100 µM; in the experiment with DU-145 prostate, > 100 µM; in the experiment with HCT-116 colon it was > 100 µM; in the experiment on NCI-H23 lung, > 88.5 µM. Further, the TGI in the experiment on SNB-19 CNS, with SK-MEL-5 melanoma, with A498 renal and in the experiment on M14 melanoma was > 100 µM throughout.

`CCOC(=O)C1(C(=O)OCC)C[C@H](C)[C@](C)(O)C1`: the TGI with LOX IMVI melanoma, in the experiment on EKVX NSCLC, with SR leukemia, in the experiment with DU-145 prostate, in the experiment with HCT-116 colon and in the experiment on NCI-H23 lung was > 100 µM each time. Further, the TGI with SNB-19 CNS, in the experiment on SK-MEL-5 melanoma, in the experiment on A498 renal and with M14 melanoma was > 100 µM each time.

Regarding `Cc1ccc(-c2c3nc(c(-c4ccc(C)cc4)c4ccc([nH]4)c(-c4ccc(OCC5COC(C)(C)O5)cc4)c4nc(c(-c5ccc(C)cc5)c5ccc2[nH]5)C=C4)C=C3)cc1` (centres undefined), the TGI with LOX IMVI melanoma, in the experiment on EKVX NSCLC, in the experiment with SR leukemia, in the experiment on DU-145 prostate, with HCT-116 colon and in the experiment with NCI-H23 lung was > 31.6 µM in each case. In addition, the TGI with SNB-19 CNS, with SK-MEL-5 melanoma and in the experiment with M14 melanoma was > 31.6 µM throughout.

Turning to `CC12CCC([C@H](C(O)C3CCCCC3)C1=O)C2(C)C` (some centres undefined), the TGI in the experiment with LOX IMVI melanoma, with EKVX NSCLC, with SR leukemia, with DU-145 prostate, in the experiment on HCT-116 colon and in the experiment on NCI-H23 lung was > 100 µM each time. For the same compound, the TGI in the experiment on SNB-19 CNS, in the experiment with SK-MEL-5 melanoma, in the experiment on A498 renal and in the experiment with M14 melanoma was > 100 µM throughout.

In the case of `O=C1NN(C2=NNC3(C(=O)N2)c2ccccc2-c2ccccc23)C(c2ccccc2)=N/C1=C/c1ccc(O)cc1`, the GI50 in the experiment with LOX IMVI melanoma is 32.2 µg/mL (≈ 61.2 µM); with EKVX NSCLC, 47.4 µg/mL (≈ 90 µM); in the experiment with SR leukemia, 59.7 µg/mL (≈ 113 µM); in the experiment on DU-145 prostate, 90.8 µg/mL (≈ 172 µM); with HCT-116 colon, 103 µg/mL (≈ 196 µM); with NCI-H23 lung, 61.5 µg/mL (≈ 117 µM). The GI50 in the experiment with SNB-19 CNS is 94.9 µg/mL (≈ 180 µM); with SK-MEL-5 melanoma it was 39.2 µg/mL (≈ 74.5 µM); in the experiment with M14 melanoma, 57.6 µg/mL (≈ 109 µM). The TGI was 71.3 µg/mL in the experiment on LOX IMVI melanoma; > 150 µg/mL in the experiment on EKVX NSCLC; > 150 µg/mL in the experiment on SR leukemia; > 150 µg/mL in the experiment on DU-145 prostate; > 150 µg/mL with HCT-116 colon; > 150 µg/mL in the experiment on NCI-H23 lung. In addition, the TGI in the experiment on SNB-19 CNS, in the experiment on SK-MEL-5 melanoma and in the experiment with M14 melanoma was > 150 µg/mL each time.

On to `CN(C)CCCN1c2ccccc2Sc2cnccc21`, for which the TGI in the experiment with LOX IMVI melanoma, with EKVX NSCLC, in the experiment on SR leukemia, in the experiment on DU-145 prostate, in the experiment with HCT-116 colon and with SNB-19 CNS was > 100 µM each time. In addition, the TGI in the experiment with SK-MEL-5 melanoma, in the experiment on A498 renal and in the experiment on M14 melanoma was > 100 µM in each case.

Take `O=C1CCCC2(c3ccccc3)Nc3ccccc3N12` (centres undefined): the TGI in the experiment with LOX IMVI melanoma, with EKVX NSCLC, with SR leukemia, with DU-145 prostate, in the experiment with HCT-116 colon and in the experiment with NCI-H23 lung was > 100 µM throughout. The TGI in the experiment with SNB-19 CNS, in the experiment on SK-MEL-5 melanoma and in the experiment on M14 melanoma was > 100 µM in each case.

As for `CCOC(=O)C(O)(NC(=O)c1ccc(F)cc1)C(F)(F)F` (centres undefined), the TGI with LOX IMVI melanoma, with EKVX NSCLC, in the experiment on SR leukemia, in the experiment with DU-145 prostate, in the experiment with HCT-116 colon and in the experiment with NCI-H23 lung was > 100 µM each time. Further, the TGI with SNB-19 CNS, in the experiment on SK-MEL-5 melanoma and in the experiment with M14 melanoma was > 100 µM each time.

`Cc1cc(C)n(C2OC(CO)C(O)C(O)C2O)c(=S)c1C#N` (centres undefined): the TGI in the experiment with LOX IMVI melanoma, in the experiment with SR leukemia, in the experiment with DU-145 prostate, in the experiment with HCT-116 colon, in the experiment on NCI-H23 lung and in the experiment with SNB-19 CNS was > 100 µM throughout. Besides, the TGI with SK-MEL-5 melanoma, in the experiment on A498 renal and in the experiment on M14 melanoma was > 100 µM each time.

As to `CCOP(=O)(CN1CCNCCNCC1)OCC`, the TGI in the experiment on LOX IMVI melanoma, with EKVX NSCLC, with SR leukemia, with DU-145 prostate, with HCT-116 colon and in the experiment on SNB-19 CNS was > 100 µM in each case. In addition, the TGI in the experiment on SK-MEL-5 melanoma, in the experiment with A498 renal and in the experiment on M14 melanoma was > 100 µM throughout.

In the case of `CC(C)Oc1ccc2c(c1)OCC1Cc3ccccc3OC21` (centres undefined), the TGI in the experiment with LOX IMVI melanoma, in the experiment with EKVX NSCLC, in the experiment on SR leukemia, with DU-145 prostate, in the experiment with HCT-116 colon and in the experiment with NCI-H23 lung was > 100 µM throughout. Further, the TGI with SK-MEL-5 melanoma is 47.5 µM; in the experiment on A498 renal it was > 100 µM; with M14 melanoma, > 100 µM.

As for `O=C(O)[C@@H]1CSCN1C(=O)[C@@H]1CCC(=S)N1`, the TGI with LOX IMVI melanoma, in the experiment on SR leukemia, with DU-145 prostate, in the experiment on NCI-H23 lung, in the experiment with SNB-19 CNS and in the experiment with SK-MEL-5 melanoma was > 100 µM in each case. Moreover, the TGI in the experiment with A498 renal and with M14 melanoma was > 100 µM each time.

Source of the values: PubChem BioAssay (NCI).
